The OligoGym collection
HELM strings list units from the 5' end as sugar, base in round brackets, then linkage (d deoxyribose, r ribose, m 2'-O-methyl, p phosphodiester). Strings are as the collection lists them; they lack the last nucleoside at the 3' end of the tested compound. [moe] = 2'-O-(2-methoxyethyl) (MOE); [sp] = phosphorothioate linkage; [m5C] = 5-methylcytosine

Molecular target: SMN2
Experiment: mouse, dose not given
Conditions: ASO

RNA1{[moe](T)[sp].[moe]([m5C])[sp].[moe](A)[sp].[moe]([m5C])[sp].[moe](T)[sp].[moe](T)[sp].[moe](T)[sp].[moe]([m5C])p.[moe](A)p.[moe](T)[sp].[moe](A)[sp].[moe](A)[sp].[moe](T)[sp].[moe](G)[sp].[moe]([m5C])[sp].[moe](T)[sp].[moe](G)}$$$$ (last 3' nucleoside missing)
3 h FOB score: 4 score 0-7

RNA1{[moe]([m5C])[sp].[moe](A)[sp].[moe]([m5C])[sp].[moe](T)[sp].[moe](T)[sp].[moe](T)[sp].[moe]([m5C])[sp].[moe](A)p.[moe](T)p.[moe](A)[sp].[moe](A)[sp].[moe](T)[sp].[moe](G)[sp].[moe]([m5C])[sp].[moe](T)[sp].[moe](G)[sp].[moe](G)}$$$$ (last 3' nucleoside missing)
3 h FOB score: 0 score 0-7

RNA1{[moe]([m5C])[sp].[moe](T)[sp].[moe](T)[sp].[moe](T)[sp].[moe]([m5C])[sp].[moe](A)p.[moe](T)p.[moe](A)p.[moe](A)p.[moe](T)p.[moe](G)p.[moe]([m5C])[sp].[moe](T)[sp].[moe](G)[sp].[moe](G)}$$$$ (last 3' nucleoside missing)
3 h FOB score: 0.75 score 0-7

RNA1{[moe](T)[sp].[moe]([m5C])[sp].[moe](A)[sp].[moe]([m5C])[sp].[moe](T)[sp].[moe](T)[sp].[moe](T)[sp].[moe]([m5C])[sp].[moe](A)[sp].[moe](T)[sp].[moe](A)[sp].[moe](A)[sp].[moe](T)[sp].[moe](G)[sp].[moe]([m5C])[sp].[moe](T)[sp].[moe](G)[sp].[moe](G)p.[moe](T)}$$$$ (last 3' nucleoside missing)
3 h FOB score: 4 score 0-7

RNA1{[moe]([m5C])[sp].[moe](A)[sp].[moe]([m5C])[sp].[moe](T)[sp].[moe](T)[sp].[moe](T)[sp].[moe]([m5C])[sp].[moe](A)[sp].[moe](T)[sp].[moe](A)[sp].[moe](A)p.[moe](T)p.[moe](G)p.[moe]([m5C])p.[moe](T)[sp].[moe](G)[sp].[moe](G)}$$$$ (last 3' nucleoside missing)
3 h FOB score: 0 score 0-7

RNA1{[moe](A)[sp].[moe](G)[sp].[moe](A)[sp].[moe](T)[sp].[moe](T)[sp].[moe]([m5C])[sp].[moe](A)[sp].[moe]([m5C])[sp].[moe](T)[sp].[moe](T)[sp].[moe](T)[sp].[moe]([m5C])[sp].[moe](A)[sp].[moe](T)[sp].[moe](A)[sp].[moe](A)[sp].[moe](T)[sp].[moe](G)[sp].[moe]([m5C])}$$$$ (last 3' nucleoside missing)
3 h FOB score: 3.5 score 0-7

RNA1{[moe](A)[sp].[moe]([m5C])[sp].[moe](T)p.[moe](T)p.[moe](T)p.[moe]([m5C])p.[moe](A)[sp].[moe](T)[sp].[moe](A)[sp].[moe](A)[sp].[moe](T)[sp].[moe](G)[sp].[moe]([m5C])[sp].[moe](T)[sp].[moe](G)[sp].[moe](G)}$$$$ (last 3' nucleoside missing)
3 h FOB score: 0 score 0-7

RNA1{[moe](A)[sp].[moe]([m5C])[sp].[moe](T)[sp].[moe](T)[sp].[moe](T)[sp].[moe]([m5C])p.[moe](A)p.[moe](T)p.[moe](A)p.[moe](A)p.[moe](T)p.[moe](G)p.[moe]([m5C])[sp].[moe](T)[sp].[moe](G)[sp].[moe](G)}$$$$ (last 3' nucleoside missing)
3 h FOB score: 0 score 0-7

RNA1{[moe](A)[sp].[moe](T)p.[moe](T)p.[moe]([m5C])[sp].[moe](A)[sp].[moe]([m5C])[sp].[moe](T)[sp].[moe](T)[sp].[moe](T)[sp].[moe]([m5C])[sp].[moe](A)[sp].[moe](T)[sp].[moe](A)[sp].[moe](A)[sp].[moe](T)[sp].[moe](G)[sp].[moe]([m5C])[sp].[moe](T)[sp].[moe](G)}$$$$ (last 3' nucleoside missing)
3 h FOB score: 3.25 score 0-7

RNA1{[moe](A)p.[moe](T)[sp].[moe]([m5C])[sp].[moe](A)[sp].[moe]([m5C])[sp].[moe](T)[sp].[moe](T)[sp].[moe](T)[sp].[moe]([m5C])[sp].[moe](A)[sp].[moe](T)[sp].[moe](A)[sp].[moe](A)[sp].[moe](T)[sp].[moe](G)[sp].[moe]([m5C])[sp].[moe](T)[sp].[moe](G)}$$$$ (last 3' nucleoside missing)
3 h FOB score: 4 score 0-7

RNA1{[moe]([m5C])[sp].[moe](A)[sp].[moe]([m5C])[sp].[moe](T)p.[moe](T)p.[moe](T)[sp].[moe]([m5C])[sp].[moe](A)[sp].[moe](T)[sp].[moe](A)[sp].[moe](A)[sp].[moe](T)[sp].[moe](G)[sp].[moe]([m5C])[sp].[moe](T)[sp].[moe](G)[sp].[moe](G)}$$$$ (last 3' nucleoside missing)
3 h FOB score: 0 score 0-7

RNA1{[moe](T)[sp].[moe](T)p.[moe]([m5C])[sp].[moe](A)[sp].[moe]([m5C])[sp].[moe](T)[sp].[moe](T)[sp].[moe](T)[sp].[moe]([m5C])[sp].[moe](A)[sp].[moe](T)[sp].[moe](A)[sp].[moe](A)[sp].[moe](T)[sp].[moe](G)[sp].[moe]([m5C])p.[moe](T)[sp].[moe](G)}$$$$ (last 3' nucleoside missing)
3 h FOB score: 1 score 0-7

RNA1{[moe]([m5C])[sp].[moe](A)[sp].[moe]([m5C])[sp].[moe](T)[sp].[moe](T)[sp].[moe](T)[sp].[moe]([m5C])[sp].[moe](A)p.[moe](T)p.[moe](A)p.[moe](A)p.[moe](T)[sp].[moe](G)[sp].[moe]([m5C])[sp].[moe](T)[sp].[moe](G)[sp].[moe](G)}$$$$ (last 3' nucleoside missing)
3 h FOB score: 0 score 0-7

RNA1{[moe](T)[sp].[moe]([m5C])[sp].[moe](A)[sp].[moe]([m5C])[sp].[moe](T)[sp].[moe](T)[sp].[moe](T)[sp].[moe]([m5C])[sp].[moe](A)[sp].[moe](T)[sp].[moe](A)[sp].[moe](A)[sp].[moe](T)[sp].[moe](G)p.[moe]([m5C])[sp].[moe](T)[sp].[moe](G)}$$$$ (last 3' nucleoside missing)
3 h FOB score: 3.75 score 0-7

RNA1{[moe](A)[sp].[moe](T)[sp].[moe](T)[sp].[moe]([m5C])[sp].[moe](A)[sp].[moe]([m5C])[sp].[moe](T)[sp].[moe](T)[sp].[moe](T)p.[moe]([m5C])p.[moe](A)[sp].[moe](T)[sp].[moe](A)[sp].[moe](A)[sp].[moe](T)[sp].[moe](G)[sp].[moe]([m5C])[sp].[moe](T)[sp].[moe](G)}$$$$ (last 3' nucleoside missing)
3 h FOB score: 4 score 0-7

RNA1{[moe](T)[sp].[moe](T)[sp].[moe]([m5C])[sp].[moe](A)[sp].[moe]([m5C])[sp].[moe](T)[sp].[moe](T)[sp].[moe](T)[sp].[moe]([m5C])[sp].[moe](A)[sp].[moe](T)[sp].[moe](A)[sp].[moe](A)[sp].[moe](T)[sp].[moe](G)[sp].[moe]([m5C])[sp].[moe](T)[sp].[moe](G)}$$$$ (last 3' nucleoside missing)
3 h FOB score: 3.75 score 0-7

RNA1{[moe]([m5C])[sp].[moe](A)p.[moe]([m5C])[sp].[moe](T)[sp].[moe](T)[sp].[moe](T)[sp].[moe]([m5C])[sp].[moe](A)p.[moe](T)[sp].[moe](A)[sp].[moe](A)[sp].[moe](T)[sp].[moe](G)[sp].[moe]([m5C])[sp].[moe](T)[sp].[moe](G)[sp].[moe](G)}$$$$ (last 3' nucleoside missing)
3 h FOB score: 1 score 0-7

RNA1{[moe](A)[sp].[moe]([m5C])p.[moe](T)p.[moe](T)p.[moe](T)[sp].[moe]([m5C])[sp].[moe](A)[sp].[moe](T)[sp].[moe](A)[sp].[moe](A)[sp].[moe](T)[sp].[moe](G)[sp].[moe]([m5C])p.[moe](T)p.[moe](G)[sp].[moe](G)}$$$$ (last 3' nucleoside missing)
3 h FOB score: 0 score 0-7

RNA1{[moe](G)[sp].[moe](A)[sp].[moe](T)[sp].[moe](T)[sp].[moe]([m5C])[sp].[moe](A)[sp].[moe]([m5C])[sp].[moe](T)[sp].[moe](T)[sp].[moe](T)[sp].[moe]([m5C])[sp].[moe](A)[sp].[moe](T)[sp].[moe](A)[sp].[moe](A)[sp].[moe](T)[sp].[moe](G)[sp].[moe]([m5C])}$$$$ (last 3' nucleoside missing)
3 h FOB score: 2 score 0-7

RNA1{[moe](T)[sp].[moe]([m5C])[sp].[moe](A)[sp].[moe]([m5C])[sp].[moe](T)[sp].[moe](T)[sp].[moe](T)[sp].[moe]([m5C])[sp].[moe](A)[sp].[moe](T)[sp].[moe](A)[sp].[moe](A)[sp].[moe](T)[sp].[moe](G)[sp].[moe]([m5C])p.[moe](T)[sp].[moe](G)}$$$$ (last 3' nucleoside missing)
3 h FOB score: 2.75 score 0-7

RNA1{[moe](A)[sp].[moe](T)[sp].[moe](T)[sp].[moe]([m5C])[sp].[moe](A)[sp].[moe]([m5C])[sp].[moe](T)[sp].[moe](T)[sp].[moe](T)[sp].[moe]([m5C])[sp].[moe](A)[sp].[moe](T)[sp].[moe](A)[sp].[moe](A)[sp].[moe](T)[sp].[moe](G)[sp].[moe]([m5C])p.[moe](T)[sp].[moe](G)}$$$$ (last 3' nucleoside missing)
3 h FOB score: 4 score 0-7

RNA1{[moe](T)[sp].[moe]([m5C])[sp].[moe](A)[sp].[moe]([m5C])[sp].[moe](T)[sp].[moe](T)[sp].[moe](T)[sp].[moe]([m5C])[sp].[moe](A)[sp].[moe](T)[sp].[moe](A)[sp].[moe](A)[sp].[moe](T)[sp].[moe](G)[sp].[moe]([m5C])[sp].[moe](T)[sp].[moe](G)[sp].[moe](G)[sp].[moe]([m5C])}$$$$ (last 3' nucleoside missing)
3 h FOB score: 0 score 0-7

RNA1{[moe]([m5C])[sp].[moe](T)[sp].[moe](T)[sp].[moe](T)[sp].[moe]([m5C])[sp].[moe](A)[sp].[moe](T)[sp].[moe](A)[sp].[moe](A)[sp].[moe](T)[sp].[moe](G)[sp].[moe]([m5C])[sp].[moe](T)[sp].[moe](G)[sp].[moe](G)}$$$$ (last 3' nucleoside missing)
3 h FOB score: 2.88 score 0-7

RNA1{[moe]([m5C])[sp].[moe](T)[sp].[moe](T)[sp].[moe](T)[sp].[moe]([m5C])p.[moe](A)p.[moe](T)p.[moe](A)p.[moe](A)p.[moe](T)p.[moe](G)p.[moe]([m5C])[sp].[moe](T)[sp].[moe](G)[sp].[moe](G)}$$$$ (last 3' nucleoside missing)
3 h FOB score: 0 score 0-7
